Assay results as given in patent US11903957B2, “Composition for preventing, ameliorating, or treating sleep disturbance comprising flavonoid compound as effective component” (KOREA INSTITUTE OF ORIENTAL MEDICINE, priority 2018, dated 2024).

How the values were obtained:
[1] = tested on: neuropeptide Y; assay: mRNA expression level of neuropeptide Y in cerebral cortex (real-time PCR), caffeine-induced sleep disturbance; type: in vivo, mouse; settings: 30 mg/kg saponarin or 200 mg/kg St. John's wort orally for 14 days, caffeine i.p.; cortex obtained on Day 15; compared to control; FIG. 5A
Method: (§1) 30 mg/kg saponarin (Sigma-Aldrich, St. Louis, Mo., USA; dissolved in 0.5% CMC solution) and 200 mg/kg St. John's wort (dissolved in 0.5% CMC solution) were aliquoted to satisfy the administration amount and orally administered one hour before the caffeine administration. To the normal and stress control, 0.5% CMC solution was orally administered while 30 mg/kg saponarin was administered to the saponarin group and 200 mg/kg St. John's wort was administered to the positive control, in an amount of 0.1 ml for each.
(§2) Nine-week old male C57BL/6 mouse with bodyweight of 20 to 22 g was obtained from DBL Co., Ltd. (Eumseong-Gun, Chungcheong-Bukdo, Korea). […]
(§3) Expression pattern of the gene in cerebral cortex, which has been removed from each test animal upon the completion of the test, was determined by real-time PCR. The cerebral cortex tissues of a mouse were treated with RNAzolB (Tel-Test) to extract RNA, and then analyzed by cDNA and real-time PCR instrument using One-step SYBR Green PCR kit (AB science).
(§4) The cerebral cortex tissues were added with 500 μl of RNAzol(B), disrupted using a homogenizer, and then added with 50 μl of chloroform (CHCl3) followed by mixing again for 15 seconds. […] Real time quantitative PCR was carried out by using Applied Biosystems 7500 Real-Time PCR system (Applied Biosystems, USA). […]

[2] = tested on: C57BL/6 mouse induced to have sleep disturbance by caffeine; assay: Open field test in animal model with sleep disturbance induced by caffeine; type: in vivo; settings: 30 mg/kg saponarin or 200 mg/kg St. John's wort orally for 14 days, compared to control
Method: as §1
Nine-week old male C57BL/6 mouse with bodyweight of 20 to 22 g was obtained from DBL Co., Ltd. (Eumseong-Gun, Chungcheong-Bukdo, Korea). The animal was supplied with a sufficient amount of water and solid feed (not added with any antibiotics, Samyang Animal Feed Co.) till the test day, and it was used for the experiment after acclimation for 1 week under an environment with temperature of 22±2° C., humidity of 55±15%, and 12-hour light and dark cycle. The experiment was carried out as illustrated in FIG. 1. Chemicals were orally administered every day for 14 days in total, and, according to intraperitoneal administration of 10 mg/kg caffeine 1 hour thereafter, sleep disturbance was induced.
Open field test is to determine sleep disturbance and amelioration level obtained by pharmaceutical in which the determination is made by measuring the voluntary movement of a mouse after entering an unfamiliar field for the first time. A mouse was placed at the center (30×30×30 cm) of a white box, which is made of white acryl, and then travel distance (total distance moved), mobility time, mobility frequency and immobility time for 1 hour were analyzed by using Video tracking software (Ethovision XT, Noldus, Nederland).
The saponarin administration group was orally administered with 30 mg/kg saponarin. After one hour, the animal was intraperitoneally administered with 10 mg/kg caffeine to induce sleep disturbance caused by caffeine for 14 days. Then, travel distance of the mouse was measured.
Then, the mobility time and mobility frequency were measured.
Thereafter, the immobility time of mouse was measured.

[3] = tested on: SD rat induced to have sleep disturbance by stress; assay: Electroencephalography (EEG) measurement in animal model with sleep disturbance induced by stress; type: in vivo; settings: foot pad electric shock stress for 5 days, compared to stress control
Method: The saponarin administration group was administered orally with 0.1 ml of saponarin, 30 minutes before the stress application. The normal and stress control were administered orally with 0.1 ml of a solvent. Operation was carried out for four divided groups, i.e., normal, control, saponarin, and positive control (St. John's wort), and total 24 animals were used, i.e., 6 animals per group.
A male rat (7 week old) was suitably fed with solid feed and water till the test day. After the acclimation for 1 week in an environment in which temperature of 23 to 25° C., humidity of 45 to 60%, and illuminance of 200 to 300 LUX, and 12 hour light and dark cycle are maintained, the animals were subjected to the test. For the operation, a 7-week old Sprague Dawley (SD) rat was anesthetized by intraperitoneal injection of 40 mg/kg pentobarbital, and then placed and fixed on a stereotaxic instrument (Stoelting CO, USA) such that the bregma and lambda are in horizontal alignment. After suppressing subgaleal bleeding, hairs were shaved and the skull was exposed by excising the scalp and removing the periosteum. Based on the anatomy drawing by Paxinos & Watson, a hole was created by using drill, an electrode was inserted to reach the dura mater, and an electrode composed of two silver wires was inserted to neck muscle to record an electromyogram. On top of the cranial bone of cerebellum, pins attached with an electrode for recording an electroencephalogram and an electrode for recording an electromyogram were placed and fixed on top of the cranial bone by applying dental cement. […]
After the stress for 5 days, the rat was orally administered with each pharmaceutical, and, after 30 minutes, EEG recording was carried out in a light-blocking acrylic cylinder (PM 8:00 to AM 8:00). The wake time and sleep (REM and NonREM) time were recorded by using SleepSign Ver. […]
After 30 minutes, foot pad electric shock was applied to the SD rats to induce for 5 days sleep disturbance caused by stress. Wake time was then measured for each rat.

[4] = tested on: cholecystokinin; assay: mRNA expression level of cholecystokinin in cerebral cortex (real-time PCR), caffeine-induced sleep disturbance; type: in vivo, mouse; settings: 30 mg/kg saponarin or 200 mg/kg St. John's wort orally for 14 days, caffeine i.p.; cortex obtained on Day 15; compared to control; FIG. 5B
Method: as §1, §2, §3, §4

[5] = tested on: GABA A α1 receptor; assay: mRNA expression level of GABA A α1 receptor in cerebral cortex (real-time PCR), caffeine-induced sleep disturbance; type: in vivo, mouse; settings: 30 mg/kg saponarin or 200 mg/kg St. John's wort orally for 14 days, caffeine i.p.; cortex obtained on Day 15; compared to control; FIG. 6, p<0.01
Method: as §1, §2, §3, §4

## O=c1cc(-c2ccc(O)cc2)oc2cc(O[C@@H]3O[C@H](CO)[C@@H](O)[C@H](O)[C@H]3O)c([C@@H]3O[C@H](CO)[C@@H](O)[C@H](O)[C@H]3O)c(O)c12 [saponarin, (1S)-1,5-anhydro-1-[7-(beta-D-glucopyranosyloxy)-5-hydroxy-2-(4-hydroxyphenyl)-4-oxo-4H-chromen-6-yl]-D-glucitol]
[1]
  mRNA expression of neuropeptide Y in cerebral cortex: show increased expression or tend to show increased expression in statistically significant sense
[2]; 10 mg/kg caffeine i.p. 1 hour later, FIG. 2, p<0.05
  travel distance (total distance moved), open field test: decreased in significant sense
[2]; 10 mg/kg caffeine i.p., FIG. 3A, p<0.01
  mobility time, open field test: decreased in significant sense
[2]; 10 mg/kg caffeine i.p., FIG. 3B, p<0.01
  mobility frequency, open field test: decreased in significant sense
[2]; 10 mg/kg caffeine i.p., FIG. 4
  immobility time, open field test: increased
[3]; 30 mg/kg saponarin or 200 mg/kg St. John's wort orally, FIG. 8, p<0.05
  wake time during sleep by EEG: decreased in significant sense
[3]; 30 mg/kg saponarin orally, FIG. 9
  REM sleep time by EEG: tends to increase
[3]; 30 mg/kg saponarin orally, FIG. 10
  NonREM sleep time by EEG: tends to increase
[4]
  mRNA expression of cholecystokinin in cerebral cortex: show increased expression or tend to show increased expression in statistically significant sense
[5]
  mRNA expression of GABA A α1 receptor in cerebral cortex: increased mRNA expression of GABA A α1 receptor in significant sense
